From patent US20070003976A1, “Car ligand-binding domain polypeptide co-crystallized with a ligand, and methods of designing ligands that modulate car activity” (SMITHKLINE BEECHAM CORPORATION, priority 2003, published 2007)

Molecular target: T1, human CAR LBD protein (Homo sapiens, UniProt Q14994)
T1 construct: made in house; host or cells: E. coli BL21 (DE3), pRSETA vector
T1 sequence (Q14994 103-348 isoform Q14994-2): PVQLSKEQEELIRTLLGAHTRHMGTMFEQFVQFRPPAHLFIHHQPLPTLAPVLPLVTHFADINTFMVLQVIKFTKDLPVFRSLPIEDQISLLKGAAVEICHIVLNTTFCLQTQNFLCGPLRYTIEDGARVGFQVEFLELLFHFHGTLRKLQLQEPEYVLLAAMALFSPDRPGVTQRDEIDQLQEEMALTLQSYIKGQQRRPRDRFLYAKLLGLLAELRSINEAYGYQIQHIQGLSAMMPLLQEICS
Test: Fluorescence Resonance Energy Transfer (FRET) Ligand Sensing Assay: CAR LBD / SRC-1 coactivator peptide interaction
Assay type: biochemical
Description: Screening of synthetic compound libraries with the purified CAR LBD protein by a Fluorescence Resonance Energy Transfer (FRET) Ligand Sensing Assay (Parks et al., 1999) was conducted to identify molecules that alter the basal interaction between a coactivator peptide and the CAR LBD protein. Briefly, the purified human CAR LBD protein was biotinylated and labeled with streptavidin-conjugated fluorophore allophycocyanin. The labeled CAR LBD protein was incubated with a test compound and with a peptide that included the second LXXLL binding motif of the nuclear coactivator SRC-1 (GenBank Accession No. U59302; amino acids 676-700) that was labeled with europium chelate. Data were collected with a WALLAC VICTOR™ fluorescence reader (available from PerkinElmer Life Sciences Inc., Boston, Mass., United States of America) in a time resolved mode and the fluorescence ratio calculated.

EC50 (dose response curves with purified CAR LBD protein, reduction of basal CAR LBD/SRC-1 peptide FRET signal (inverse agonist)): 15 nM
Compound: NC(=O)c1ccc2nc(NC(c3ccccc3)c3ccccc3)n(CCc3ccccc3)c2c1 [Compound 1, 2-(benzhydrylamino)-1-(2-phenylethyl)-1H-benzimidazole-6-carboxamide]
effect on basal fluorescent signal (CAR LBD/SRC-1 interaction) (screen of synthetic compound libraries, time resolved fluorescence ratio): inverse agonist molecule that reduces the basal fluorescent signal
